{
  "source": "patent US12173344B2",
  "about": "“Fluorescent fusion based heterologous peptide production” (Stellenbosch University, priority 2020, dated 2024)",
  "assay_type_in_all_cases": "cell-based",
  "key": {"[1]": {"system": "Lactobacillus sakei", "assay": "Antimicrobial activity (clear zones on plates) against Lactobacillus sakei", "procedure": "(§1) For initial antimicrobial efficacy testing, both GFP-fused and non-GFP-fused pLanthipeptides were loaded (GFP-pNisin and GFP-pPep5) and cleaved directly in wells with trypsin (5 μg/mL for GFPpNisin) or thrombin (3 U/100 μL for GFP-pPep5). Antimicrobial activity was evaluated against Lactobacillus sakei for nisin and against S. carnosus for GFP-pPep5. Plates were incubated at 30° C. overnight until visible clear zones were observed. Lactobacillus sakei was cultured in MRS broth or agar and S. carnosus was cultured in Mueller Hinton Broth or agar.\n(§2) GFP-pLanthipeptides were cleaved at 37° C. for 4 h and 20 h, with thrombin or hNisP. Heterologously expressed hNisP was added to concentrations of 0.01 ng/μL, 5 ng/μL, 10 ng/μL, 50 ng/μL and 70 ng/μL. Thrombin was added at 0.75 U, 4.5 U, 3 U and 6 U. Cleavage reactions were performed in 100 μL reactions and protein concentrations of GFP-pLanthipeptides were adjusted to final concentrations of 1 mg/ml with the exception of GFP-pPep5Th which was adjusted to 0.9 mg/mL. Cleavage reactions were stopped by the addition of protease inhibitors. Antimicrobial activity was evaluated against Lb. sakei and S. carnosus for GFP-pNisin (30 μL) and GFP-pPep5 (80 μL), respectively. Plates were incubated at 30° C. overnight until visible clear zones were observed. Samples were separated using SDS-PAGE."}, "[2]": {"system": "S. carnosus", "assay": "Antimicrobial activity (clear zones on plates) against S. carnosus", "settings": "thrombin and hNisP, 4 h and 20 h cleavage", "procedure": "as §1, §2"}, "[3]": {"system": "Listeria monocytogenes EDG-e", "assay": "Antilisterial activity, spot plate and SDS-PAGE agar overlay", "procedure": "While the respective bacteriocins were fused to GFP and produced a fluorescent complex, it was important to determine that antimicrobial activity was due to the liberated bacteriocin. Antimicrobial activity of plantaricin 423 and mundticin ST4SA was assessed against Listeria monocytogenes EDG-e grown on Brain Heart Infusion media (BHI) containing […] chloramphenicol. The spot plate method was performed on solid medium (1% w/v agar) seeded with Listeria monocytogenes EDG-e. SDS-PAGE separations were assayed for activity by casting the polyacrylamide gel in an agar bilayer seeded with Listeria monocytogenes EDG-e. Before casting, the poly acrylamide gels were fixed for 20 min in a 25% isopropanol, 10% acetic acid fixing solution and then rinsed 3×15 min with sterile ultra-pure water.\nCleavage parameters were optimized using a modified method from that supplied by the manufacturer. The WELQut-to-Sample ratios were set to 1:100, 1:50, 1:25, 1:5 (v/v) for 50 μL samples of GFP-PlaX and GFP-MunX, respectively, and diluted to a final volume of 250 μL in WELQut cut buffer. The approximate corresponding units of WELQ to 466.5 μg of GFP-PlaX was 2.5 U, 5 U, 10 U and 50 U respectively. The approximate corresponding units of WELQ to 547.5 μg of GFP-MunX was 2.5 U, 5 U, 10 U and 50 U respectively. Cleavage reactions were incubated at 28° C., and 50 μL samples were collected at 2 h, 4 h, 8 h, and 16 h, respectively. Cleavage was assessed by the spot plate method using BHI solid medium (1% w/v agar) seeded with Listeria monocytogenes EGD-e.\nMundticin ST4SA and plantaricin 423 were cleaved from one millilitre of His-tag purified GFP-MunX and GFP-PlaX, respectively, under optimal cleavage conditions. Cleavage reactions were purified using high performance liquid chromatography (HPLC), single peaks were spot tested for antilisterial activity."}, "[4]": {"system": "Erythrocyte", "assay": "Erythrocyte lysis (haemolysis) assay", "settings": "fusion not cleaved", "source_text": "FIG. 18: Top Panel-SDS-PAGE of purified GFP-LLO and LLO used in erythrocyte lysis assay. Left: Stained gel. Right: Fluorescent image of GFP-LLO and GFP, L: Ladder (NEB ladder #P7712), 1: Uncut GFP-LLO, 2: Cleaved, IMAS purified and desalted LLO. A: GFP-LLO, B: LLO. Bottom Panel-Erythrocyte haemolysis following GFP-LLO exposure at varying pH. Relative haemoglobin absorbance was collected at 540 nm, values expressed as percentage of positive control, mean±SEM (n=3), Analysis via t-test concluded *=p<0.001, ***=p<0.0001 vs Untreated."}, "[5]": {"settings": "after cleavage / liberation of the core peptide, expression at 26° C."}},
  "note": "Where no end group is shown, it is not given here.",
  "data": [
    {"substance": "HispNisin: His-tagged precursor nisin, no fluorescent fusion (MSTKDFNLDLVSVSKKDSGASPRITSISLCTPGCKTGALMGCNMKTATCHCSIHVSK; cysteine pairing not given here; also: His tag, not shown in chain; UniProt P13068 1-57, looked up)", "values": [
      {"measurement": "Antimicrobial activity", "setting": "[1]; [5]", "result": "decrease"},
      {"measurement": "Antimicrobial activity", "setting": "[1]; after cleavage with trypsin, expression at 18° C., soluble and insoluble fractions", "result": "highest activity"},
      {"measurement": "Antimicrobial activity", "setting": "[1]; after cleavage with trypsin, expression at 37° C.", "result": "substantial loss in activity"}
    ]},
    {"substance": "Pep5: lanthipeptide liberated from GFP-pPep5 by thrombin or hNisP (TAGPAIRASVKQCQKTLKATRLFTVSCKGKNGCK; also: lanthipeptide (lantibiotic) thioether rings, not placed; UniProt P19578 27-60, looked up)", "values": [
      {"measurement": "Effect on antimicrobial activity of increasing concentration and cleavage time", "setting": "[2]", "result": "detrimental effect"}
    ]},
    {"substance": "GFP-MunX: GFP fused to mature mundticin ST4SA with WELQut cleavage site (SEQ ID NO:32)", "values": [
      {"measurement": "Antilisterial activity at the band location", "setting": "[3]; SDS-PAGE gel overlay after WELQut cleavage, zone at the size/location of the named species", "result": "zones of antilisterial activity"},
      {"measurement": "Antilisterial activity", "setting": "[3]; WELQut cleaved samples, SDS-PAGE gel overlay", "result": "clear zones"},
      {"measurement": "Specific activity", "setting": "[3]; cleaved fusion protein, compared with the other GFP-bacteriocin", "result": "higher specific activity"},
      {"measurement": "Antilisterial activity", "setting": "[3]; uncleaved fusion protein, spot plate", "result": "did not show antilisterial activity"}
    ]},
    {"substance": "GFP-LLO", "values": [
      {"measurement": "Activity of LLO while fused to fluorescent partner", "setting": "[4]", "result": "still has activity"}
    ]},
    {"substance": "GFP-pNisin: N-terminal His tagged GFP with WELQut site fused to precursor nisin (SEQ ID NO:28/30)", "values": [
      {"measurement": "Antimicrobial activity", "setting": "[1]; [5]", "result": "highest activity"},
      {"measurement": "Antimicrobial activity", "setting": "[1]; after cleavage with trypsin, expression at a range of temperatures, induction times and IPTG concentrations", "result": "activity was detected"},
      {"measurement": "Antimicrobial activity", "setting": "[1]; uncleaved sample", "result": "absent"}
    ]}
  ]
}
